Counter-ions that a name gives are not always drawn.
Key:
RIP2 kinase = RIP2 kinase (Homo sapiens (Human), UniProt O43353); experiment: Binding affinity assay (Kd)
Description: For most assays, kinase-tagged T7 phage strains were prepared in an E. coli host derived from the BL21 strain. E. coli were grown to log-phase and infected with T7 phage and incubated with shaking at 32° C. until lysis. The lysates were centrifuged and filtered to remove cell debris. The remaining kinases were produced in HEK-293 cells and subsequently tagged with DNA for qPCR detection. Streptavidin coated magnetic beads were treated with biotinylated small molecule ligands for 30 minutes at room temperature to generate affinity resins for kinase assays. The liganded beads were blocked with excess biotin and washed with blocking buffer (SeaBlock (Pierce), 1% BSA, 0.05% Tween 20, 1 mM DTT) to remove unbound ligand and to reduce non-specific binding. Binding reactions were assembled by combining kinases, liganded affinity beads, and test compounds in 1× binding buffer (20% SeaBlock, 0.17×PBS, 0.05% Tween 20, 6 mM DTT). Test compounds were prepared as 111× stocks in 100% DMSO. Kds were determined using an 11-point 3-fold compound dilution series with three DMSO control points. All compounds for Kd measurements are distributed by acoustic transfer (non-contact dispensing) in 100% DMSO. The compounds were then diluted directly into the assays such that the final concentration of DMSO was 0.9%. All reactions performed in polypropylene 384-well plate. Each was a final volume of 0.02 ml. The assay plates were incubated at room temperature with shaking for 1 hour and the affinity beads were washed with wash buffer (1×PBS, 0.05% Tween 20). The beads were then re-suspended in elution buffer (1×PBS, 0.05% Tween 20, 0.5 μM nonbiotinylated affinity ligand) and incubated at room temperature with shaking for 30 minutes. The kinase concentration in the eluates was measured by qPCR.
An 11-point 3-fold serial dilution of each test compound was prepared in 100% DMSO at 100× final test concentration and subsequently diluted to 1× in the assay (final DMSO concentration=1%). Most Kds were determined using a compound top concentration=30,000 nM. If the initial Kd determined was <0.5 nM (the lowest concentration tested), the measurement was repeated with a serial dilution starting at a lower top concentration.
Binding constants (Kds) were calculated with a standard dose-response curve using the Hill equation: […]
The Hill Slope was set to −1.
Curves were fitted using a non-linear least square fit with the Levenberg-Marquardt algorithm.

[1] = test system: IL-8 in THP-1 induced by MDP; experiment: THP-1 cell assay, IL-8 ELISA after MDP; format: cell-based; settings: for inhibition at 0.01 µM: Homo sapiens, test compounds 10 nM, THP-1, MDP induced
Description: Acute monoblastic and monocytic leukemia (THP-1) was obtained from ATCC (item NO. TIB-202™). The temperature of the sterile incubator is 37˜38° C., the osmotic pressure is 260˜320 mmol/L, the pH range is 7.2˜7.4, and the ratio of carbon dioxide gas is 5%.
Cells were seeded in 96-well plates. After an hour, cells were incubated with test compounds for 2 hours. MDP (10 μL) was added and incubated for 6 hours. The samples were centrifuged (3000 rmp/min) for 5 minutes. The concentration of IL-8 in the supernatants was detected by IL-8 ELISA.

[2] = Protein binding test (dialysis), human; format: in vitro ADME
Description: (§1) • 1. Spiking Solutions of Test and Reference Compounds • 1.1 Solution A (0.5 mM): Add 10 μL of 10 mM stock solution into 190 μL of DMSO. • 1.2 Solution B (0.02 mM): Add 8 μL of Solution A into 192 μL of 0.05 M sodium phosphate buffer. The final DMSO concentration in Solution B is 4%. • 2. Preparation of Test and Reference Compounds • 2.1 Preload a 96-well plate with 380 μL aliquots of plasma in the wells designated for plasma and buffer, respectively. • 2.2 Spike 20 μL of Solution B (0.02 mM of test and reference compounds) into the pre-loaded plasma in the 96-well plate. The final test concentration is 1 μM containing 0.2% DMSO. • 3. Dialysis Sample Loading • 3.1 Preparing plasma against buffer system (duplicate): Apply aliquots of 100 μL of blank dialysis buffer to the receiver side of dialysis chambers. Then apply aliquots of 100 μL of the plasma spiked with test and reference compounds to the donor side of the dialysis chambers. • 3.2 Preparing T0 plasma samples for initial concentrations (duplicate): • 3.2.1 Aliquot 25 μL of the plasma spiked with test and reference compounds into a 96-well sample preparation plate as T0 plasma samples • 3.2.2 Mix the aliquots with same volume of blank buffer (50:50, v/v). • 3.2.3 Quench the samples with 200 μL of acetonitrile containing internal standard (IS). • 3.3 Cover the dialysis block with a plastic lid and place the entire apparatus in a shaker (60 rpm) for 5 hours at 37° C. • 3.4 Preparing dialyzed samples after 5-hour incubation: • 3.4.1 Aliquot 25 μL from both the donor sides and receiver sides of the dialysis apparatus into new sample preparation plates and mix the aliquots with same volume of opposite matrixes (blank buffer to plasma and vice versa). • 3.4.2 Quench the samples with 200 μL acetonitrile containing internal standard (IS). Vortex all the samples (from 0 h and 5 h) at 600 rpm for 10 min followed by centrifugation at 5594 g for 15 minutes (ThermoMultifuge×3R). • 3.4.3 Transfer 50 μL of the supernatants to a new 96-well plate and mix the samples with 50 μL of Milli-Q water. Cover the sample plate and store it in a freezer (−20° C.) until LC/MS/MS analysis.

[3] = Pharmacokinetic evaluation in mice; format: in vivo
Description: The mice pharmacokinetic characteristics of compounds were tested by standard protocols. The candidate compounds were made into clear solution for single intravenous injection (i.v.) and suspension for oral administration (p.o.). Intravenous vehicle is 5% DMSO+95% Saline while oral vehicle is 0.5% CMCNa. The experiment used 48 male mice and 24 mice for intravenous at a dose of 2 mg/kg. Plasma samples were collected at 0 h (before dosing) and 0.083 h, 0.25 h, 0.5 h, 1 h, 2 h, 4 h, 8 h, 24 h after dosing. Another 24 mice were orally administrated with a dose of 10 mg/kg. Plasma samples were collected at 0 h (before dosing) and 0.25 h, 0.5 h, 1 h, 2 h, 4 h, 6 h, 8 h, 24 h after dosing.
Blood samples were placed in tubes containing K2-EDTA and stored on ice until centrifuged. The blood samples were centrifuged at 6800 g for 6 minutes at 2-8° C. within 1 h after collected and stored frozen at approximately −80° C.
The analytical results were confirmed using quality control samples for intra-assay variation. The accuracy of >66.7% of the quality control samples and 50% of all QC samples at each concentration level were between 80-120% of the known value(s).
Standard set of parameters including Area Under the Curve (AUC(0-t) and AUC(0-∞)), elimination half-live (T1/2), maximum plasma concentration (Cmax), time to reach maximum plasma concentration (Tmax) were calculated using noncompartmental analysis modules in FDA certified pharmacokinetic program Phoenix WinNonlin 7.0 (Pharsight, USA) by the Study Director.

[4] = Protein binding test (dialysis), rat; format: in vitro ADME
Description: as §1

[5] = Protein binding test (dialysis), dog; format: in vitro ADME
Description: as §1

[6] = male, mouse, plasma, iv, i.v. 2 mg/kg
[7] = male, mouse, plasma, po, p.o. 10 mg/kg

Sequence of RIP2 kinase (O43353 whole entry): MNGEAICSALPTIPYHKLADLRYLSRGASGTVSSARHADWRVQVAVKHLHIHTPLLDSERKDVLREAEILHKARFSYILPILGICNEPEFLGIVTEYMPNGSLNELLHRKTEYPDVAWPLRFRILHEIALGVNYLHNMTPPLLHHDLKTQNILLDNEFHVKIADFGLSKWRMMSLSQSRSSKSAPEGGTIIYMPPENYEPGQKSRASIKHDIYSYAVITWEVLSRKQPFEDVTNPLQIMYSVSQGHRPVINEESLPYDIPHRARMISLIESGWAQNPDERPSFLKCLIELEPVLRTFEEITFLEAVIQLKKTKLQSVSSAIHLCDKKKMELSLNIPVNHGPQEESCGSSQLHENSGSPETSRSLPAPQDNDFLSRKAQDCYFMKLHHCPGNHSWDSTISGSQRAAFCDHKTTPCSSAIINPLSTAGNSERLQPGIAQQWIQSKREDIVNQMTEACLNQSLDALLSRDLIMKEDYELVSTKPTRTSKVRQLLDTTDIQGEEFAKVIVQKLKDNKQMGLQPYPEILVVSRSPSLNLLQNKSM

| Kd (RIP2 kinase) [nM] | SMILES | inhibition at 0.01 µM [1] [%] | also measured |
| --- | --- | --- | --- |
| 28 | CP(C)(=O)c1ccc2nccc(Nc3ccc4scnc4c3)c2c1 [A1, (4-(benzo[d]thiazol-5-ylamino)quinolin-6-yl)dimethylphosphine oxide hydrochloride] | – | – |
| 89 | Cc1ccc(O)cc1Nc1ccnc2ccc(P(C)(C)=O)cc12 [A2] | – | – |
| 430 | CP(C)(=O)c1ccc2nccc(Nc3n[nH]c4ccc(F)cc34)c2c1 [A3] | – | – |
| 89 | Cc1[nH]nc(Nc2ccnc3ccc(P(C)(C)=O)cc23)c1C [A4] | – | – |
| 120 | CP(C)(=O)c1ccc2nccc(Nc3cc(O)ccc3F)c2c1 [A5] | – | – |
| 1.8 | CP(C)(=O)c1cc2c(Nc3ccc4scnc4c3)ccnc2cc1OC1CCOC1 (centres unmarked) [A10] | 51 | – |
| 3 | Cn1cc(-c2cc3nccc(Nc4ccc5scnc5c4)c3cc2P(C)(C)=O)cn1 [A11, (4-(benzo[d]thiazol-5-ylamino)-7-(1-methyl-1H-pyrazol-4-yl)quinolin-6-yl)dimethylphosphine oxide] | 37 | – |
| 2.3 | CP(C)(=O)c1cc2c(Nc3ccc4scnc4c3)ccnc2cc1-c1cc[nH]n1 [A12] | – | – |
| – | CP(C)(=O)c1cc2c(Nc3ccc4scnc4c3)ccnc2cc1-c1cn[nH]c1 [A17] | 11 | – |
| – | CP(C)(=O)c1cc2c(Nc3ccc4scnc4c3)ccnc2cc1OC[C@@H](O)CO [A18, (S)-(4-(benzo[d]thiazol-5-ylamino)-7-(2,3-dihydroxypropoxy)quinolin-6-yl)dimethylphosphine oxide] | 12 | – |
| – | CP(C)(=O)c1cc2c(Nc3ccc4scnc4c3)ccnc2cc1OC[C@H](O)CO [A19] | 13 | – |
| 8.7 | CP(C)(=O)c1cc2c(Nc3ccc4scnc4c3)ccnc2cc1F [A20] | – | – |
| 1.5 | CP(C)(=O)c1cc2c(Nc3ccc4scnc4c3)ccnc2cc1OC1CCC1 [A21] | – | – |
| – | [2H]C([2H])([2H])Oc1cc2nccc(Nc3ccc4scnc4c3)c2cc1P(C)(C)=O [A22] | 60 | – |
| – | COc1cc2ncc(F)c(Nc3ccc4scnc4c3)c2cc1P(C)(C)=O [A23, (4-(benzo[d]thiazol-5-ylamino)-3-fluoro-7-methoxyquinolin-6-yl)dimethylphosphine oxide] | 5 | – |
| 6.4 | CP(C)(=O)c1cc2c(Nc3ccc4scnc4c3)ccnc2cc1OC(F)F [A25] | – | protein binding in human (in words) ([2]; human): moderate; fraction unbound at 5 h, 1 μM ([2]; human plasma, 1 μM): 0.032; plasma exposure and bioavailability in mice (in words) [3]: excellent plasma exposure and bioavailability; AUC [3, 6]: 6510 ng·h/mL; Vd [3, 6]: 0.59 L/kg; clearance [3, 6]: 4.3 mL/min/kg; half-life [3, 6]: 1.6 h; AUC [3, 7]: 68300 ng·h/mL; Cmax [3, 7]: 19200 ng/mL; Tmax [3, 7]: 0.7 h; F ([3]; p.o. 10 mg/kg): 210%; protein binding in rat (in words) ([4]; rat): high protein binding; fraction unbound at 5 h, 1 μM ([4]; rat plasma, 1 μM): 0.006; protein binding in dog (in words) ([5]; dog): moderate; fraction unbound at 5 h, 1 μM ([5]; dog plasma, 1 μM): 0.05 |
| 12 | CP(C)(=O)c1cc2c(Nc3ccc4scnc4c3)ccnc2cc1C1COC1 [A26, (4-(benzo[d]thiazol-5-ylamino)-7-(oxetan-3-yl)quinolin-6-yl)dimethylphosphine oxide] | – | – |
| – | Cc1noc(C)c1-c1cc2nccc(Nc3ccc4scnc4c3)c2cc1P(C)(C)=O [A27] | 37 | – |
| – | COc1cc2nccc(Nc3ccc4scnc4c3F)c2cc1P(C)(C)=O [A28] | 63 | – |
| – | CP(C)(=O)c1cc2c(Nc3ccc4scnc4c3F)ccnc2cc1OC1COC1 [A29] | 85 | – |
| 3200 | CP(C)(=O)c1cnc2nccc(Nc3ccc4scnc4c3)c2c1 [B1, (5-(benzo[d]thiazol-5-ylamino)-1,8-naphthyridin-3-yl)dimethylphosphine oxide] | – | affinity with RIP2 kinase (in words) (RIP2 kinase): low affinity |
| – | COc1cc2nncc(Nc3ccc4scnc4c3)c2cc1P(C)(C)=O [B2, (4-(benzo[d]thiazol-5-ylamino)-7-methoxycinnolin-6-yl)dimethylphosphine oxide] | 0 | inhibition of IL-8 in THP-1 induced by MDP (in words) ([1]; 10 nM): no effect |
